≈ marks a conversion by molar mass, not a printed value.

In data set [1] the target is T1, α2β1 (Homo sapiens, UniProt P05556+P17301). The experiment in a line: α2β1 cell adhesion. The data set is classed as cell-based.
For another data set, the target named is α4β1 (Homo sapiens, UniProt P05556+P13612). As to the kind of experiment: α4β1 cell adhesion. In kind it is cell-based.
A short description of a further data set: Caco-2 permeability. In kind it is in vitro ADME. Particulars: human; for Papp A→B: A-B direction; for Papp B→A: B-A direction. In general terms: Caco-2 monolayers are a common model of the intestinal barrier.
The nature of data set [2]: Kinetic solubility (aqueous). Particulars: kinetic from dmso stock, read-out: Kinetic Solubility (Aq). In kind it is physicochemical.
The next data set is described as follows: Plasma stability (h). In kind it is in vitro ADME, human. Particulars: % remaining at 60 min.
A further data set can be described thus: Metabolic stability (h). The data set is classed as in vitro ADME, human. Particulars: % remaining at 45 min.
In data set [3] the target is T1, α2β1. As to the kind of experiment: α2β1 cell adhesion assay. The data set is classed as cell-based.

Chain of α4β1 (P13612 34-1032): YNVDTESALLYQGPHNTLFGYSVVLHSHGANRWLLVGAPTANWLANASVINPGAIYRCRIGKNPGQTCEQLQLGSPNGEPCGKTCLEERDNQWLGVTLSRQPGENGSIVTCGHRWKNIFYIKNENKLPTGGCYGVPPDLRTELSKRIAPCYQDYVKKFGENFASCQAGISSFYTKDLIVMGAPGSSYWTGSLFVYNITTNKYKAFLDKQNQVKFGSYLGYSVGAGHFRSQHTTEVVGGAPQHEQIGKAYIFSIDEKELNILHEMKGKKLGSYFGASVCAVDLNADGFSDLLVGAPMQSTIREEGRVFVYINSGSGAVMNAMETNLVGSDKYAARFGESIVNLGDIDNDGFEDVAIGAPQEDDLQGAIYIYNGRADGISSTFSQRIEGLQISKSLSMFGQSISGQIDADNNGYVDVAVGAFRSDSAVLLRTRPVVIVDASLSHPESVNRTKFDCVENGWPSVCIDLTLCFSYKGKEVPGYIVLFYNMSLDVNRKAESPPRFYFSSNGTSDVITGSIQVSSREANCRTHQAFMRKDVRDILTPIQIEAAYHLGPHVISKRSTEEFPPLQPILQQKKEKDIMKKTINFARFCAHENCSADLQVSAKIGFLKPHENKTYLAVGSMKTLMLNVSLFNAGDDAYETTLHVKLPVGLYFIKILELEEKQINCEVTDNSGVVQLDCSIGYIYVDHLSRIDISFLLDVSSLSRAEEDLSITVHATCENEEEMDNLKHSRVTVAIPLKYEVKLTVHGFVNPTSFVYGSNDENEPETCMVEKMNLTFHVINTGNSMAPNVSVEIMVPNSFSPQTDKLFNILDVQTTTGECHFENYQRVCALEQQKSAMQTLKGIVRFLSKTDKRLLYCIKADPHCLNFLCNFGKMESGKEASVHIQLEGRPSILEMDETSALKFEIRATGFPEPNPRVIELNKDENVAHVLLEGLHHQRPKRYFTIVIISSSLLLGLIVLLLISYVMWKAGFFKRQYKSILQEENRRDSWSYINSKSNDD
Chain of α4β1 (P05556 21-798): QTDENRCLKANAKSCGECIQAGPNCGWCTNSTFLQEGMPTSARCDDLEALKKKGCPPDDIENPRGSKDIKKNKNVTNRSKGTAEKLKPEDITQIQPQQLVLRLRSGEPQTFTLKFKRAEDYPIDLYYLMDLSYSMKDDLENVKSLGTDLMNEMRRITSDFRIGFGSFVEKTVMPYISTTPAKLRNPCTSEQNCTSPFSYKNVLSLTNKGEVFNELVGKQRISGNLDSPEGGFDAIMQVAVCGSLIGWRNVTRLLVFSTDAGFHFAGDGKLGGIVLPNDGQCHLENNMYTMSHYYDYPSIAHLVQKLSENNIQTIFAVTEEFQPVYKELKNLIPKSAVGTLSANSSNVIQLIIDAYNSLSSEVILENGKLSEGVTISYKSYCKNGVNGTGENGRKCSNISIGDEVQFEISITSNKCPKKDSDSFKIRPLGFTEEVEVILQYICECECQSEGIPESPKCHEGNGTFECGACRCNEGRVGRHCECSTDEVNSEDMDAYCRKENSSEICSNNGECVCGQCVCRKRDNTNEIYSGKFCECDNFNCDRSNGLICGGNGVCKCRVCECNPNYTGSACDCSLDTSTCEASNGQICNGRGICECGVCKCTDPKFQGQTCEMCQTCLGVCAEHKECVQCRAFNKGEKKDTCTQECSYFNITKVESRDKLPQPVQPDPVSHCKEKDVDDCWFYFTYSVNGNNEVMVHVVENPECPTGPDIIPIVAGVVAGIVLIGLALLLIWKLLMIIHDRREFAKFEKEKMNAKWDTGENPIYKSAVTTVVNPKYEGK
T1 sequence (P17301 30-1181): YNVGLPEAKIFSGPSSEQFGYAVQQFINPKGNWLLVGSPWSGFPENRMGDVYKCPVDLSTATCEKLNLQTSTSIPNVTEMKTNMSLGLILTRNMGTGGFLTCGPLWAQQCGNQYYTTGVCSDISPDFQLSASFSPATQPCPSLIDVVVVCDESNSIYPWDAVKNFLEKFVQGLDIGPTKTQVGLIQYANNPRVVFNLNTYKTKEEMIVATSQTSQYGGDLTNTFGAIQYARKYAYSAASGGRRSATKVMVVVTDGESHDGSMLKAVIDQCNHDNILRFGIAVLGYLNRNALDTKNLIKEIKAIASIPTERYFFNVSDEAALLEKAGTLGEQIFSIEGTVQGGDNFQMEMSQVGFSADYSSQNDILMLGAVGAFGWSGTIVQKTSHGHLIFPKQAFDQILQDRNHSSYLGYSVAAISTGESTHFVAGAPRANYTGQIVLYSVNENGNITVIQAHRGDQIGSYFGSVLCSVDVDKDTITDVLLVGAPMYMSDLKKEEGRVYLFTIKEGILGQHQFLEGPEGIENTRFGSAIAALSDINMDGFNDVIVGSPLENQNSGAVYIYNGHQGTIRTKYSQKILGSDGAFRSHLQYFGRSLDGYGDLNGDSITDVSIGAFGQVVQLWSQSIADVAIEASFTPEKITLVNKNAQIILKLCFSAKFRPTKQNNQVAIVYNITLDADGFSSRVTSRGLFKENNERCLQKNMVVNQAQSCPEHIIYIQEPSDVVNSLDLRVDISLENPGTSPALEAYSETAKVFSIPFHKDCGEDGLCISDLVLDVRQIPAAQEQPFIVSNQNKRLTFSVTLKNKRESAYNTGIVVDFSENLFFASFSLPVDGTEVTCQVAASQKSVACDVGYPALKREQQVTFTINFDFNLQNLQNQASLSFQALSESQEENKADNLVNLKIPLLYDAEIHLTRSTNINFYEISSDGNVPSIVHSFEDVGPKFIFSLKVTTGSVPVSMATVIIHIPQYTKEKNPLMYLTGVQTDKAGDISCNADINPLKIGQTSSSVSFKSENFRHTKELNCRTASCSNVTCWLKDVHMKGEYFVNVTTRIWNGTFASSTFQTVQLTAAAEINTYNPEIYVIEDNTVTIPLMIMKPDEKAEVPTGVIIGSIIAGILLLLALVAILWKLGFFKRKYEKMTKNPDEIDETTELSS
T1 sequence (P05556 21-798): as the sequence (P05556 21-798) above

The term IC50 denotes the concentration that gives 50% inhibition. Low readings indicate higher potency, high ones lower potency. For `O=C(NC[C@H](NC(=O)c1c(Cl)ccc(N2CC(c3ccccc3)C2)c1Cl)C(=O)O)N[C@@H]1CCc2ccccc21` [SU15210-0080-01, (S)-2-(2,6-dichloro-3-(3-phenylazetidin-1-yl)benzamido)-3-(3-((R)-2,3-dihydro-1H-inden-1-yl)ureido)propanoic Acid], the IC50 against α2β1 [1] was below 0.5 µM; on α4β1, 37 µM.
On to `CN(Cc1ccccc1)C(=O)NC[C@H](NC(=O)c1c(Cl)cccc1Cl)C(=O)O` [SU15210-0167-01], for which the IC50 is below 0.5 µM on α2β1 [1] and 83.9 µM against α4β1.
As for `O=C(CCc1ccccc1)Nc1ccc(Cl)c(C(=O)N[C@@H](CNC(=O)N[C@@H]2CCc3ccccc32)C(=O)O)c1Cl` [SU15210-0124-01, (S)-2-(2,6-dichloro-3-(3-phenylpropanamido)benzamido)-3-(3-((R)-2,3-dihydro-1H-inden-1-yl)ureido)propanoic Acid], the IC50 at α2β1 [1] is below 0.5 µM; against α4β1, 21 µM.
As usually defined, the Papp A→B is the apparent permeability from the apical to the basolateral side of a cell layer. Read a low Papp A→B as slow passage. The term Papp B→A denotes how fast a substance crosses the layer from the basolateral side. Usually solubility (kinetic) stands for the concentration staying in solution when a stock, usually in DMSO, is diluted into the medium. As for `O=C(Cc1cccc(Cl)c1)Nc1ccc(Cl)c(C(=O)N[C@@H](CNC(=O)N[C@@H]2CCc3ccccc32)C(=O)O)c1Cl` [SU15210-0099-01, (S)-2-(2,6-dichloro-3-(2-(3-chlorophenyl)acetamido)benzamido)-3-(3-((R)-2,3-dihydro-1H-inden-1-yl)ureido)propanoic Acid], in “Caco-2 permeability”, the Papp A→B came to 2.7 ×10⁻⁶ cm/s and the Papp B→A came to 20.1 ×10⁻⁶ cm/s. Moreover, the solubility (kinetic) in data set [2] came out at 66.9 µM (≈ 40.4 µg/mL). On α2β1 [1], the IC50 is below 0.5 µM. Moreover, the “Plasma Stab(h) % rem/60 min” value in the data set “Plasma stability (h)” is recorded as 85.84%. In addition, the “Met Stab(h) % rem/45 min” value in the data set “Metabolic stability (h)” worked out at 72.3%.
In the case of `O=C(NC[C@H](NC(=O)c1c(Cl)cc(C(=O)NCc2cccc(O)c2)cc1Cl)C(=O)O)N[C@@H]1CCc2ccccc21` [SU15210-0095-01, (S)-2-(2,6-dichloro-4-(3-hydroxybenzylcarbamoyl)benzamido)-3-(3-((R)-2,3-dihydro-1H-inden-1-yl)ureido)propanoic Acid], the Papp A→B in “Caco-2 permeability” came out at 3.2 ×10⁻⁶ cm/s. This molecule also registered a Papp B→A in the data set “Caco-2 permeability” of 1.6 ×10⁻⁶ cm/s. In addition, the IC50 against α2β1 [1] is below 0.5 µM; at α4β1, 21.1 µM. Moreover, the “Plasma Stab(h) % rem/60 min” value in the data set “Plasma stability (h)” is recorded as 99.4%. The “Met Stab(h) % rem/45 min” value in “Metabolic stability (h)” is 99.6%.
Take `CN(Cc1ccccc1)C(=O)NC[C@H](NC(=O)c1c(Cl)cc(C(=O)NCc2cccc(O)c2)cc1Cl)C(=O)O` [SU15210-0186-01, (S)-3-(3-benzyl-3-methylureido)-2-(2,6-dichloro-4-(3-hydroxybenzylcarbamoyl)benzamido)propanoic Acid]: in the data set “Caco-2 permeability”, the Papp A→B stood at 2.2 ×10⁻⁶ cm/s and the Papp B→A was 1.5 ×10⁻⁶ cm/s. Further, the IC50 at α2β1 [1] is below 0.5 µM.
Take `O=C(NC[C@H](NC(=O)c1c(Cl)cc(C(=O)NCc2cccc(Cl)c2)cc1Cl)C(=O)O)N[C@@H]1CCc2cc(Cl)ccc21` [SU15210-0294, (S)-3-(3-((R)-5-chloro-2,3-dihydro-1H-inden-1-yl)ureido)-2-(2,6-dichloro-4-(3-chlorobenzylcarbamoyl)benzamido)propanoic Acid]: the IC50 on α2β1 [3] fell in the range of 0.5 to 1 µM.
With `O=C(NC[C@H](NC(=O)c1c(Cl)cc2c(c1Cl)CCN(C(=O)c1ccccc1)C2)C(=O)O)N[C@@H]1CCc2ccccc21` [SU15210-0173-01], in the data set “Caco-2 permeability”, the apical-to-basolateral permeability (Papp A→B) was 0.8 ×10⁻⁶ cm/s and the Papp B→A was found to be 6.8 ×10⁻⁶ cm/s. The same molecule returned an IC50 against α2β1 [1] below 0.5 µM. The “Plasma Stab(h) % rem/60 min” value in “Plasma stability (h)” is given as 108%. Besides, in the data set “Metabolic stability (h)”, the “Met Stab(h) % rem/45 min” value is given as 65%.
`O=C(NC[C@H](NC(=O)c1c(Cl)cc(C(=O)NCc2ccc(Cl)c(Cl)c2)cc1Cl)C(=O)O)N[C@@H]1CCc2ccccc21` [SU15210-0291, (S)-2-(2,6-dichloro-4-(3,4-dichlorobenzylcarbamoyl)benzamido)-3-(3-((R)-2,3-dihydro-1H-inden-1-yl)ureido)propanoic Acid] yielded an IC50 against α2β1 [3] below 0.5 µM.
The same measure, in the same setting: as for `COc1cccc(CNC(=O)c2cc(Cl)c(C(=O)N[C@@H](CNC(=O)N[C@@H]3CCc4ccccc43)C(=O)O)c(Cl)c2)c1` [SU15210-0290-01, (S)-2-(2,6-dichloro-4-(3-methoxybenzylcarbamoyl)benzamido)-3-(3-((R)-2,3-dihydro-1H-inden-1-yl)ureido)propanoic Acid], the figure is below 0.5 µM.
As for `O=C(NC[C@H](NC(=O)c1c(Cl)ccc(Nc2ncc3ccccc3n2)c1Cl)C(=O)O)N[C@@H]1CCc2ccccc21` [SU15210-0076-01, (S)-2-(2,6-dichloro-3-(quinazolin-2-ylamino)benzamido)-3-(3-((R)-2,3-dihydro-1H-inden-1-yl)ureido)propanoic Acid], in “Caco-2 permeability”, the Papp A→B stood at 0.2 ×10⁻⁶ cm/s and the basolateral-to-apical permeability (Papp B→A) amounted to 24.2 ×10⁻⁶ cm/s. On α2β1 [1], this molecule registered an IC50 below 0.5 µM. Further, the “Plasma Stab(h) % rem/60 min” value in “Plasma stability (h)” amounted to 55.6%. This molecule also came in with an IC50 on α4β1 of 2.9 µM. In “Metabolic stability (h)”, the “Met Stab(h) % rem/45 min” value is 96.3%.
For the molecule `O=C(NC[C@H](NC(=O)c1c(Cl)ccc(NCCCc2ccccc2)c1Cl)C(=O)O)N[C@@H]1CCc2ccccc21` [SU15210-0098-01, (S)-2-(2,6-dichloro-3-(3-phenylpropylamino)benzamido)-3-(3-((R)-2,3-dihydro-1H-inden-1-yl)ureido)propanoic Acid], the IC50 is below 0.5 µM at α2β1 [1] and 32.3 µM on α4β1.
Take `O=C(NC[C@H](NC(=O)c1c(Cl)cc2c(c1Cl)CCN(Cc1ccc(Cl)cc1)C2=O)C(=O)O)N[C@@H]1CCc2ccccc21` [SU15210-0244-01]: the IC50 against α2β1 [3] is above 5 µM.
In the data set “Caco-2 permeability”, `O=C(NC[C@H](NC(=O)c1c(Cl)cc(C(=O)NCc2cccc(Cl)c2)cc1Cl)C(=O)O)N[C@@H]1CCc2ccccc21` [SU15210-0185-01, (S)-2-(2,6-dichloro-4-(3-chlorobenzylcarbamoyl)benzamido)-3-(3-((R)-2,3-dihydro-1H-inden-1-yl)ureido)propanoic Acid] yielded a Papp A→B of 2.2 ×10⁻⁶ cm/s and a Papp B→A of 5.53 ×10⁻⁶ cm/s. Besides, at α2β1 [1], the IC50 was below 0.5 µM.
In turn, `CCOC(=O)[C@H](CNC(=O)N(C)Cc1ccccc1)NC(=O)c1c(Cl)cc2c(c1Cl)CCN(Cc1cccc(Cl)c1)C2=O` [SU15210-0270-01, (S)-ethyl 3-(3-benzyl-3-methylureido)-2-(5,7-dichloro-2-(3-chlorobenzyl)-1-oxo-1,2,3,4-tetrahydroisoquinoline-6-carboxamido)propanoate] gave an IC50 at α2β1 [3] of 0.5 to 1 µM.

The values above are taken from patent publication US11643388B2, “Inhibitors of alpha 2 beta 1 integrin and methods of use thereof” (The Regents of the University of California, priority 2020, dated 2023).
